This is an account of results in patent US20230271956A1, “AMIDE DERIVATIVES” (Merck Patent GmbH, priority 2020, published 2023).

One assay concerns the target T1, human rec ACSS2 (Homo sapiens, UniProt Q9NR19).
T1 construct: myc (C); purchased Origene
The experiment in a line: Biochemical activity ACSS2 assay (AMP-Glo). As to conditions: human recombinant ACSS2, AMP-Glo, 180 min at 37° C. How it is done: The biochemical activity assay for ACSS2 is based on the detection of released AMP by AMP-Glo ™ Assay kit (Promega, Madison). The assay is run in three steps: the enzymatic reaction in which human rec ACSS2 activates acetate with ATP and Coenzyme A as cosubstrates to acetyI-coA thereby releasing AMP and the detection reaction of AMP by AMP Glo assay in which after the destruction of the residual ATP with AMP Glo reagent 1 produced AMP is converted to ATP that is measured in a luciferase assay system (detection reagent). The ACSS2 activity correlates with the detected luminescence signal.
The assay was performed in Perkin Elmer 384well white Proxiplates in a total volume of 8 µl.
1 nM (fc) C-term myc tagged ACSS2 (human, recombinant, Origene, Rockville, US) and a mixture of 100 µM (fc) ATP, 100 µM (fc) Coenzyme A and 500 µM (fc) sodium acetate were incubated in a total volume of 5 µl (50 mM Hepes, 1 mM Mg-chloride, 150 mM NaCl, 1 mM DTT, 0.01 % (w/v) BSA, 0.3 % DMSO, pH 7.5) in the absence or presence of the test compound (10 dilution concentrations, start conc 30 µM) for 180 min at 37° C. The reaction was stopped and residual ATP destroyed by the addition of 1 µl AMP Glo reagent solution (Promega, Madison, US). After 1 h incubation at room temperature 2 µl of AMP Glo detection reagent was added and the assay was incubated for 0.75 hr at room temperature. The luminescence signal was measured with an Envision multimode reader (Perkin Elmer LAS Germany GmbH) at 700 nm in luminescence mode. The full value used was the inhibitor-free reaction. The pharmacological zero value was generated by addition of ACSS2 inhibitor (Ac-CoA Synthase Inhibitor - CAS 508186-14-9 -Calbiochem) in a final concentration of 5 µM. The inhibitory values (IC50) were determined using the program Assay Analyzer® from GeneData.

For a further assay, the target named is T2, ACSS2 (Homo sapiens, UniProt Q9NR19).
T2 construct: endogenous fatty acid synthesis activity in the human HCT-15 cancer cell line; endogenous in cells; host or cells: HCT-15
T2 sequence (Q9NR19 whole entry): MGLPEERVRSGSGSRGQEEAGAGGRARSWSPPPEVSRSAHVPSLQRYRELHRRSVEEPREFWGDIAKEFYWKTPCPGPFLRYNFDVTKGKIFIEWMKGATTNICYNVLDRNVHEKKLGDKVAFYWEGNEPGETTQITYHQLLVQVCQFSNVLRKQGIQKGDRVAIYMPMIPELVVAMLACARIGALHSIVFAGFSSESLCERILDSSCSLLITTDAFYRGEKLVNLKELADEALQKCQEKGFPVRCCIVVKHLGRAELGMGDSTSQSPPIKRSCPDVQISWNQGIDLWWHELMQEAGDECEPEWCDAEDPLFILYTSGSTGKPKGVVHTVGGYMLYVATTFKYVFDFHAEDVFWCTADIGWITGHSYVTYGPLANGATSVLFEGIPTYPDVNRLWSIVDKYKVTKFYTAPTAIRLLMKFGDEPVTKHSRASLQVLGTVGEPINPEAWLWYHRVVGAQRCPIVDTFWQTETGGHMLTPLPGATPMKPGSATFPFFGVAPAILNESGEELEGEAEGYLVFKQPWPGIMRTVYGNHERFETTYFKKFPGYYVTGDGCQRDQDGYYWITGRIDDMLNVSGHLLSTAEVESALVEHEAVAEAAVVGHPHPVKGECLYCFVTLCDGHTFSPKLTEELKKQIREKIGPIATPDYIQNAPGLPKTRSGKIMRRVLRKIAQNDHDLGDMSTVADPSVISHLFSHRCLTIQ
The experiment in a line: Cellular assay of 14C acetate incorporation into histones (IC50 ACSS2 cellular histone). As to conditions: HCT-15 cells. It is filed as cell-based. How it is done: This protocol describes a cellular assay capable to quantify endogenous histone acetylation activity in the human HCT-15 cancer cell line following the incorporation of extracellularly administered radiolabeled ^14C acetate with a scintillation based read out on acid extracted histones.
HCT-15 cells are trypsinized, washed and suspended in DMEM culture medium supplemented with penicillin/streptomycin (100 U/mL), sodium pyruvate (1 mM), and 10% FBS
Compounds serial dilutions are prepared in 96-well V-bottom microplate from 10 mM stock solutions in DMSO. From these dilutions 0.5 µl are transferred to a fresh plate including pure DMSO as negative control. The dilutions are prepared such, that the final concentration in the assay is 1/400 of the concentration in the serial dilution. The final DMSO concentration in the assay is 0.25 %.
The cell suspension is seeded at densities of 2x10^5 cells per 170 µl into individual wells of a 96 well plate each containing 0.5 µl aliquots of compound serial dilutions and are kept for 1h in a cell incubator. To each well 30 µL of a mixture containing 0.5 mCi/mL of ^14C-acetate with full medium are added. Then, the wells are incubated for 3 hrs in the cell incubator.
Further steps of the procedure should be conducted on ice or instrumentations precooled to 4° C. Cells are sedimented in the 96-well V-bottom microplate by centrifugation (Eppendorf 5804 R) at 1200 rpm for 5 min. The supernatant is removed and the cells are washed twice with 200µL of PBS-NaB (5 mM sodium butyrate) buffer by iterative resuspension and centrifugation. Finally, the cells are resuspended in 50 µL of TEB (PBS-NaB + 0.5 % Triton X-100) and left on ice for 10 minutes. After centrifugation at 2300 rpm for 10 minutes at 4° C. the supernatant is removed, the remaining pellet is suspended in 50 µL of 0.2 M HCl and incubated over night at 4° C. After incubation the well plate is shaken for 2 minutes in a MTP plate shaker set to 1200 rpm and then centrifuged at 3700 rpm for 10 mins. The lysate is carefully aspirated (~43 µL) and transferred into a white MTP plate (Greiner bio-one 65509). 90 µL of Ultima Gold XR scintillation cocktail are added and the plates are sealed with a transparent cover tape before mixing vigorously using plate shaker set to 1200 rpm. Radioactivity from ^14C incorporation in the wells is measured as CPM count in a MicroBeta Trilux luminescence counter.

Molecules are shown by their SMILES. pIC50: −log10 of the molar value.

T1 sequence (Q9NR19 whole entry): as above

By pIC50 is commonly meant the negative decadic logarithm of the IC50, by convention in mol/L. As for `CCn1cc(NC(=O)c2cc3c(nc2Cl)nc(C(O)(c2ccccc2)c2ccc(OC(F)F)cc2F)n3CC)cn1` (racemic) [Compound 81, 5-chloro-2-{[4-(difluoromethoxy)-2-fluorophenyl](hydroxy)phenylmethyl}-1-ethyl-N-(1-ethyl-1H-pyrazol-4-yl)-1H-imidazo[4,5-b]pyridine-6-carboxamide], the pIC50 at human rec ACSS2 is 8.00 to 9.00; on ACSS2 it was 7.00 to 8.00.

`CCn1ncc(NC(=O)c2cc3c(nc2OC)nc(C(O)(c2ccccc2)c2ccccc2)n3CC)n1` [Compound 58, 1-ethyl-N-(2-ethyl-2H-1,20,3-triazol-4-yl)-2-(hydroxydiphenylmethyl)-5-methoxy-1H-imidazo[4,5-b]pyridine-6-carboxamide]: the pIC50 on human rec ACSS2 and against ACSS2 was 7.00 to 8.00 in each case. In the case of `CCn1cnc(NC(=O)c2cnc3nc(C(O)(c4ccccc4F)c4ccccc4F)n(CC)c3c2)n1` [Compound 110, 2-[bis(2-fluorophenyl)(hydroxy)methyl]-1-ethyl-N-(1-ethyl-1H-1,2,4-triazol-3-yl)-1H-imidazo[4,5-b]pyridine-6-carboxamide], the negative logarithm of the IC50 (pIC50) at human rec ACSS2 and at ACSS2 was 8.00 to 9.00 each time. On to `CCn1cnc(NC(=O)c2cc3c(nc2OC)nc(C(O)(c2ccccc2)c2ccsc2)n3CC)n1` (racemic) [Compound 39, 1-ethyl-N-(1-ethyl-1H-1,2,4-triazol-3-yl)-2-[hydroxy(phenyl)(thiophen-3-yl)methyl]-5-methoxy-1H-imidazo[4,5-b]pyridine-6-carboxamide], for which the pIC50 at human rec ACSS2 is 8.00 to 9.00. For `CCn1cnc(NC(=O)c2cc3c(nc2OC)nc(C(O)(c2ccccc2)c2ccc(OC(F)F)cc2)n3CC)n1` (single isomer, unassigned) [Compound 72], the values for the pIC50 on human rec ACSS2 and on ACSS2 were 8.00 to 9.00 and 9.00 to 11.00, respectively.

Consider `CCn1cc(NC(=O)c2cc3c(nc2Cl)nc(C(O)(c2ccccc2)c2ccc(OC(F)F)cc2)n3CC)cn1` (racemic) [Compound 84, 5-chloro-2-{[4-(difluoromethoxy)phenyl](hydroxy)phenylmethyl}-1-ethyl-N-(1-ethyl-1H-pyrazol-4-yl)-1H-imidazo[4,5-b]pyridine-6-carboxamide], for which the negative logarithm of the IC50 (pIC50) on human rec ACSS2 and at ACSS2 was 7.00 to 8.00 in each case. Consider `[2H]c1c([2H])c([2H])c(C(O)(c2c([2H])c([2H])c([2H])c([2H])c2[2H])c2nc3nc(OC)c(C(=O)Nc4ncn(CC)n4)cc3n2CC)c([2H])c1[2H]` [Compound 37, 1-ethyl-N-(1-ethyl-1H-1,2,4-triazol-3-yl)-2-{hydroxybis[(2,3,4,5,6-^2H5)phenyl]methyl}-5-methoxy-1 H-imidazo[4,5-b]pyridine-6-carboxamide], for which, at human rec ACSS2, the pIC50 is 9.00 to 11.00. As for `CCc1c(C(O)(c2ccccc2)c2ccc(C)s2)nc2cc(OC)c(C(=O)Nc3ncn(CC)n3)cn12` (single isomer, unassigned) [Compound 26, 3-Ethyl-2-[hydroxy-(5-methyl-thiophen-2-yl)-phenyl-methyl]-7-methoxy-imidazo[1,2-a]pyridine-6-carboxylic acid (1-ethyl-1H-[1,2,4]triazol-3-yl)-amide], the pIC50 on human rec ACSS2 is 5.00 to 7.00. Take `CCn1cc(NC(=O)c2cnc3nc(C(O)(c4ccccc4F)c4ccccc4F)n(CC)c3c2)cn1` [Compound 112, 2-[bis(2-fluorophenyl)(hydroxy)methyl]-1-ethyl-N-(1-ethyl-1H-pyrazol-4-yl)-1H-imidazo[4,5-b]pyridine-6-carboxamide]: the pIC50 on human rec ACSS2 and against ACSS2 was 7.00 to 8.00 each time. `CCn1cc(NC(=O)c2cc3c(nc2Cl)nc(C(O)(c2ccc(OC(F)F)cc2)c2ccccc2F)n3CC)cn1` (racemic) [Compound 85, 5-chloro-2-{[4-(difluoromethoxy)phenyl](2-fluorophenyl)hydroxymethyl}-1-ethyl-N-(1-ethyl-1H-pyrazol-4-yl)-1H-imidazo[4,5-b]pyridine-6-carboxamide]: the pIC50 on human rec ACSS2 and on ACSS2 was 7.00 to 8.00 each time. Take `CCn1c(C(O)(c2ccccc2)c2ccccc2)nc2nc(OC)c(C(=O)Nc3cnn(CCOC)c3)cc21` [Compound 70, 1-ethyl-2-(hydroxydiphenylmethyl)-5-methoxy-N-[1-(2-methoxyethyl)-1H-pyrazol-4-yl]-1H-imidazo[4,5-b]pyridine-6-carboxamide]: the pIC50 on human rec ACSS2 and against ACSS2 was 7.00 to 8.00 in each case.

As to `CCc1c(C(O)(c2ccccc2)c2ccc(C)s2)nc2cc(OC)c(C(=O)Nc3ncn(CC)n3)cn12` (single isomer, unassigned) [Compound 27, 3-Ethyl-2-[hydroxy-(5-methyl-thiophen-2-yl)-phenyl-methyl]-7-methoxy-imidazo[1,2-a]pyridine-6-carboxylic acid (1-ethyl-1H-[1,2,4]triazol-3-yl)-amide], the pIC50 on human rec ACSS2 was 8.00 to 9.00. On the same count and under the same terms, next, `CCc1cc2nc(C(O)(c3ccccc3)c3ccccc3)c(CC)n2cc1C(=O)Nc1ncn(CC)n1` (racemic) [Compound 33, 3,7-diethyl-N-(1-ethyl-1H-1,2,4-triazol-3-yl)-2-(hydroxydiphenylmethyl)imidazo[1,2-a]pyridine-6-carboxamide]: 7.00 to 8.00; `CCn1cnc(NC(=O)c2cc3c(nc2OC)nc(C(O)(c2ccccc2)c2ccccc2C)n3CC)n1` (racemic) [Compound 56, 1-ethyl-N-(1-ethyl-1H-1,2,4-triazol-3-yl)-2-[hydroxy(2-methylphenyl)phenylmethyl]-5-methoxy-1H-imidazo[4,5-b]pyridine-6-carboxamide]: 8.00 to 9.00; `CCc1c(C(O)(c2ccccc2)c2nccs2)nc2cc(OC)c(C(=O)Nc3ncn(CC)n3)cn12` (racemic) [Compound 32, 3-ethyl-N-(1-ethyl-1H-1,2,4-triazol-3-yl)-2-[hydroxy(phenyl)(1,3-thiazol-2-yl)methyl]-7-methoxyimidazo[1,2-a]pyridine-6-carboxamide]: 7.00 to 8.00. Turning to `CCn1cnc(NC(=O)c2cc3c(nc2OC)nc(C(O)(c2ccccc2)c2ccccc2)n3C)n1` [Compound 36, N-(1-ethyl-1H-1,2,4-triazol-3-yl)-2-(hydroxydiphenylmethyl)-5-methoxy-1-methyl-1H-imidazo[4,5-b]pyridine-6-carboxamide], the pIC50 on human rec ACSS2 was 9.00 to 11.00. As to `CCn1cnc(NC(=O)c2cc3c(nc2OC)nc(C(O)(c2ccccc2)c2ccn(C)n2)n3CC)n1` (racemic) [Compound 40, 1-ethyl-N-(1-ethyl-1H-1,2,4-triazol-3-yl)-2-[hydroxy(1-methyl-1H-pyrazol-3-yl)phenylmethyl]-5-methoxy-1 H-imidazo[4,5-b]pyridine-6-carboxamide], at human rec ACSS2, the pIC50 is 7.00 to 8.00. Still for that read-out and setting: next, `CCn1cnc(NC(=O)c2cc3c(nc2OC)nc(C(O)(c2ccsc2)c2ccsc2)n3CC)n1` [Compound 38, 1-ethyl-N-(1-ethyl-1H-1,2,4-triazol-3-yl)-2-[hydroxybis(thiophen-3-yl)methyl]-5-methoxy-1H-imidazo[4,5-b]pyridine-6-carboxamide]: 8.00 to 9.00. The same measure, in the same setting: next, `CCn1cnc(NC(=O)c2cc3c(nc2OC)nc(C(O)(c2ccccc2)c2ccc4ccccc4n2)n3CC)n1` (racemic) [Compound 35, 1-ethyl-N-(1-ethyl-1H-1,2,4-triazol-3-yl)-2-[hydroxy(phenyl)(quinolin-2-yl)methyl]-5-methoxy-1H-imidazo[4,5-b]pyridine-6-carboxamide]: 8.00 to 9.00.
